# Data: ChEMBL document CHEMBL5579853, “Recent progress in the development of hypoxia-inducible factor 2α (HIF-2α) modulators: Inhibitors, agonists, and degraders (2009-2024)” (Eur J Med Chem, 2024)
# Biological target: Endothelial PAS domain-containing protein 1 (Homo sapiens, UniProt Q99814)
# Assay: Inhibition of HIF-2alpha (unknown origin)
# Details: not given
# Endothelial PAS domain-containing protein 1, sequence (Q99814 whole entry, the tested form may be a part): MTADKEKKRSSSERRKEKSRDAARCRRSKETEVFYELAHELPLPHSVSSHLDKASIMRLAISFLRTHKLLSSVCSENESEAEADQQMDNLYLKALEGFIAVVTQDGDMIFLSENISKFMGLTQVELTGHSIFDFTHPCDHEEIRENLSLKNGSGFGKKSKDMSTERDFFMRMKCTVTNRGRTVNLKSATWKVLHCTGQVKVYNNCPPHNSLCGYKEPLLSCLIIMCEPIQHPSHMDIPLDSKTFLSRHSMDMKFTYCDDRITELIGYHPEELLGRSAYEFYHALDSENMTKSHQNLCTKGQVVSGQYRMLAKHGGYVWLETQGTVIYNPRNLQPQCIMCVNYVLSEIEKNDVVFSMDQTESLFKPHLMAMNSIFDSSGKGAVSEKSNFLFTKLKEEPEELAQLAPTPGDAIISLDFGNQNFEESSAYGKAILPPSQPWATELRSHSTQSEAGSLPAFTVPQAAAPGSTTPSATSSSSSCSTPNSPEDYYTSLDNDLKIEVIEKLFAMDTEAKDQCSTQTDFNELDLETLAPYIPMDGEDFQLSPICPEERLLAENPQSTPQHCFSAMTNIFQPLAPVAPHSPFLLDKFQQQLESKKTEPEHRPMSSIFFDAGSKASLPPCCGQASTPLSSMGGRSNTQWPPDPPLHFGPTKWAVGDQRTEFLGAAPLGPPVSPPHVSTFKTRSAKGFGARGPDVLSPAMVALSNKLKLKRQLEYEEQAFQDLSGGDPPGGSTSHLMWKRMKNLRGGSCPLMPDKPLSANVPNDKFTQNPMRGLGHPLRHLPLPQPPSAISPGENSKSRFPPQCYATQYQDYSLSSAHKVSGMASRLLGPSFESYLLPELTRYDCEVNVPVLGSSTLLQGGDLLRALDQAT
row,SMILES,EC50 [nM]
1,OC1c2c(C(F)(F)F)cn(-c3cncc(F)c3)c2CC(F)C1F (stereo not drawn),500
2,O[C@H]1c2c(C(F)(F)F)ncc(OC3CC(F)(F)C3)c2[C@@H](F)[C@H]1F,21
3,O[C@@H]1CCc2c(Oc3cc(F)cc(F)c3)ncnc21,11
4,CP(C)(=O)c1ccc(Oc2cc(F)cc(F)c2)c2c1C(O)C(F)(F)C2 (stereo not drawn),29
5,N#Cc1cc(F)cc(Oc2ccc(S(=O)(=O)C(F)(F)F)c3[nH]ncc23)c1,< 100
6,CS(=O)(=O)c1ccc(N2CCCc3ccccc32)c2c1[C@H](O)[C@H](F)C2,340
7,CS(=O)(=O)c1ccc([C@H]2CCCc3cc(F)cc(C#N)c32)c2c1[C@H](O)[C@H](F)[C@@H]2F,< 100
8,N#Cc1cc(F)cc(Oc2ccc3c4c2C(F)CC4(O)C(F)(F)S3(=O)=O)c1 (stereo not drawn),< 50
9,CS(=O)(=O)c1sc(N2CCCc3ccccc32)c2c1[C@H](O)[C@H](F)C2,2200

# Biological target: T1, Vascular endothelial growth factor A, long form (Homo sapiens, UniProt P15692)
# T1 sequence (P15692 whole entry): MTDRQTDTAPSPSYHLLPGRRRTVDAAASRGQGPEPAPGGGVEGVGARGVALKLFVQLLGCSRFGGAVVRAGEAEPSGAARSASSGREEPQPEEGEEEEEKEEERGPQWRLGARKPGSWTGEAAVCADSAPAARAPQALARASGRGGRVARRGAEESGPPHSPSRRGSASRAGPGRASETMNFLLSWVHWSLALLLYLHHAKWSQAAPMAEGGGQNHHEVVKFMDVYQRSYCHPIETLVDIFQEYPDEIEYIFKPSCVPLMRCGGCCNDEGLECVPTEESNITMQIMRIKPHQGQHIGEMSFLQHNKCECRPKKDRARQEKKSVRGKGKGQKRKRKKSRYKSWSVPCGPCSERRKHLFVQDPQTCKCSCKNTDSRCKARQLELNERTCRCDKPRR
# Assay: Inhibition of VEGF (unknown origin) by FRET based analysis
# Details: not given
row,SMILES,IC50 [nM]
1,Fc1c(C(F)(F)F)ncc2c1SC[C@H](F)[C@@]21CN2C=C(C(F)(F)F)C(OC(F)F)=CC2=N1,15
2,FC(F)OC1=CC2=N[C@]3(C[C@H]4C[C@H]4c4c3ccnc4Cl)CN2C=C1C(F)(F)F,50

# Test system: 786-0
# Assay: cells
# Details: Homo sapiens, 786-0, 72 h
# Description: Antiproliferative activity against human 786-0 cells assessed as inhibition of cell growth incubated for 72 hrs by celltiter-glo assay
row,SMILES,IC50 [nM]
1,CNC(=O)c1ccn2c(C(F)F)cc(-c3ccc(C)c(C)c3)nc12,< 5000
2,CC[C@@H](Nc1cccc(F)c1)C(=O)N/N=C/c1cccc(C)c1O,5000
